Molecular target: T1, soluble guanylate cyclase (sGC) (Rattus norvegicus, UniProt P19686+P20595, C541D/E473K/R592Q)
T1 construct: To reconstitute the full length mutated gene, these three discrete fragments were used as template in a final PCR reaction; expressed in transfected cells
T1 sequence (P19686 1-690 R592Q): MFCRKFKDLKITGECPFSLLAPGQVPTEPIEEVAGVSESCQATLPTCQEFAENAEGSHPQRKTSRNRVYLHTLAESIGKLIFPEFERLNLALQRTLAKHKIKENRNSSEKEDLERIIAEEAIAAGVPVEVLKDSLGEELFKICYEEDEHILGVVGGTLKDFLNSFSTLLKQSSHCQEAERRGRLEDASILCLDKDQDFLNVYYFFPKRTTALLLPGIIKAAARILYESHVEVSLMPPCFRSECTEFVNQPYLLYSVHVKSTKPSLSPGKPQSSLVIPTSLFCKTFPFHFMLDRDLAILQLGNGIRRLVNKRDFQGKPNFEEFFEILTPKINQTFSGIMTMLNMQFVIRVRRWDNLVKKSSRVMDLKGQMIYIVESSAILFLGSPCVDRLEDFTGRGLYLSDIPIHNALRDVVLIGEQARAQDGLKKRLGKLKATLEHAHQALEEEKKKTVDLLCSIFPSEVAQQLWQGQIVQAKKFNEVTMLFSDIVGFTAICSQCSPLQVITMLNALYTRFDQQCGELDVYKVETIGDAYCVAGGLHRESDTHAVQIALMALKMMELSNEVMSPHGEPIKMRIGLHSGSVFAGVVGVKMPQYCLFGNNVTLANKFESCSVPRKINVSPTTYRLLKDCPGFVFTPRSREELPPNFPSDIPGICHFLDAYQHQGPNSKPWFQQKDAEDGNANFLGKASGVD
T1 sequence (P20595 1-619 E473K/C541D): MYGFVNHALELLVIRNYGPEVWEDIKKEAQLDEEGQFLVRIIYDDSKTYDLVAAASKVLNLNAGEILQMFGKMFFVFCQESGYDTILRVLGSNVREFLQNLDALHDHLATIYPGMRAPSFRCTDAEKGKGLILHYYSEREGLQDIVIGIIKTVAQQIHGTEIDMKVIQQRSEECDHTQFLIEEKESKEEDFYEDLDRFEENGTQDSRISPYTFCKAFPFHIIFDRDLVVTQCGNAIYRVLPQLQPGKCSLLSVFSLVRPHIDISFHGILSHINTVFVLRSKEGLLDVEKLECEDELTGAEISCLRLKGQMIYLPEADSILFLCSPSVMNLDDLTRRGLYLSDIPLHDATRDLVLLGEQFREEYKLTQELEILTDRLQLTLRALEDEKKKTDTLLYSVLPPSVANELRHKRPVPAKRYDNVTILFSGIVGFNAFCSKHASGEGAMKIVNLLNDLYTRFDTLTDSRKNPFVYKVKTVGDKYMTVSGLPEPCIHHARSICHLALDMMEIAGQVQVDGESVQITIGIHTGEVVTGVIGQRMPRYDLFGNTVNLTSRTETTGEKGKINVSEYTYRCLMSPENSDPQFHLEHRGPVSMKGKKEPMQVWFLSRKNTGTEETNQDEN
Test: MRE-CRE luciferase reporter assay in CHO cAMPL cells expressing mutated sGC (clone 7)
Format: cell-based
Details: dose response of BAY41-2272 in the absence or presence of ODQ (300 nM, 3 µM, 30 µM); 384 wp, Tyrode buffer
Experimental: According to the invention, the sGC enzymatic activity is determined by coupling a sGC enzyme with modified substrate specificity to a cAMP sensitive reporter construct in a suitable eukaryotic or prokaryotic cell, whereby the activity of the reporter gene is indicative of the sGC enzymatic activity. The sGC enzyme with modified substrate specificity is able to catalyze the conversion of ATP into cyclic AMP without affecting the allosteric regulation of the natural enzyme. The sGC substrate specificity can be modified by replacing the amino acid residues involved in nucleotide binding with the corresponding residues present in the active site of adenylate cyclase. For example, when rat sGC is used, the amino acids Arg592 of α subunit, Glu473 and Cys541 of β subunit are respectively changed into Gln, Lys and Asp, to confer ATP substrate-specificity. More details on the modification of sGC substrate specificity can be found in Sunahara et al. (1998), which is hereby incorporated by reference.
Rat wild type sGC […] and β1 subunits were amplified from brain cDNA by RT-PCR and used as templates for site directed mutagenesis. […]
1500 c/w were seeded in 384 wp. […] Luciferase activity was detected after injection of 25ul Bright-GloTM (Promega) at the CCD camera (60" measurement, high sensitivity). […]

O=c1onc2cnc3ccccc3n12 [ODQ]
Inhibition of BAY41-2272 activity by ODQ: BAY41-2272 stimulating effect on sGC is competed by ODQ
